According to patent US8697692B2, “Pyrrolo [3,2-c] pyridine-4-one 2-indolinone protein kinase inhibitors” (Shanghai Hengrui Pharmaceutical Co., Ltd., priority 2006, dated 2014):

Test system: HUVEC cell
Experiment: Cell Proliferation Inhibition VEGF-R2 Assay (SRB method)
Format: cell-based, homo sapient
Settings: Homo sapiens; HUVEC cells, 72 hours exposure, Sulforhodamine B; read-out: IC50 (VEGFR/HUVEC)
Summary of the method: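 HUVECs grown to ~85% confluence in DMEM/F12 + 10% FBS, then exposed to 6–7 compound concentrations for 72 h at 37 °C, 5% CO2; vehicle controls received 0.5% DMSO medium.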

Structure (SMILES) | IC50
CCN(CC)CCN1CCc2[nH]c(/C=C3\C(=O)Nc4ncnc(Nc5ccc(F)c(Cl)c5)c43)c(C)c2C1=O [Example 12, 4-(3-Chlor O-4-fluoro-phenylamino)-5-[5-(2-diethylamino-ethyl)-3-methyl-4-oxo-4,5,6,7-tetrahydro-1H-pyrrolo[3,2-c]pyridine-2-ylmethylene]-5,7-dihydro-pyrrolo[2,3-d]pyrimidin-6-one] | 3000 nM
Cc1c(/C=C2\C(=O)Nc3ccc(Cl)cc32)[nH]c2c1C(=O)N(CCN1CCOCC1)CC2 [Example 16, 2-(5-Chloro-2-oxo-1,2-dihydro-indol-3-ylidenemethyl)-3-methyl-5-(2-morpholin-4-yl-ethyl)-1,5,6,7-tetrahydro-pyrrolo[3,2-c]pyridin-4-one] | 580 nM
Cc1c(/C=C2\C(=O)Nc3ncnc(Nc4ccc(F)c(Cl)c4)c32)[nH]c2c1C(=O)N(CCN1CCOCC1)CC2 [Example 24, 4-(3-Chloro-4-fluoro-phenylamino)-5-[3-methyl-5-(2-morpholin-4-yl-ethyl)-4-oxo-4,5,6,7-tetrahydro-1H-pyrrolo[3,2-c]pyridine-2-ylmethylenene]-5,7-dihydro-pyrrolo[2,3-d]pyrimidin-6-one] | 2420 nM
CCN(CC)CCN1CCc2[nH]c(/C=C3\C(=O)Nc4cccc(Br)c43)c(C)c2C1=O [Example 30, 2-(4-Bromo-2-oxo-1,2-dihydro-indol-3-ylidenemethyl)-5-(2-diethylamino-ethyl)-3-methyl-1,5,6,7-tetrahydro-pyrrolo[3,2-c]pyridin-4-one] | 220 nM
CCN(CC)CCN1CCc2[nH]c(/C=C3\C(=O)Nc4cccc(C5CCNCC5)c43)c(C)c2C1=O [Example 31, 5-(2-Diethylamino-ethyl)-3-methyl-2-(2-oxo-4-piperidin-4-yl-1,2-dihydro-indol-3-ylidenemethyl)-1,5,6,7-tetrahydro-pyrrolo[3,2-c]pyridin-4-one] | 190 nM
CCN(CC)CCN1CCc2[nH]c(/C=C3\C(=O)Nc4cccc(-c5ccc(Cl)cc5F)c43)c(C)c2C1=O [Example 34, 2-[4-(4-Chloro-2-fluoro-phenyl)-2-oxo-1,2-dihydro-indol-3-ylidenemethyl]-5-(2-diethylamino-ethyl)-3-methyl-1,5,6,7-tetrahydro-pyrrolo[3,2-c]pyridin-4-one] | 120 nM
CCN(CC)CCN1CCc2[nH]c(/C=C3\C(=O)Nc4ccc(OC)cc43)c(C)c2C1=O [Example 35, 5-(2-Diethylamino-ethyl)-2-(5-methoxy-2-oxo-1,2-dihydro-indol-3-ylidenemethyl)-3-methyl-1,5,6,7-tetrahydro-pyrrolo[3,2-c]pyridin-4-one] | 130 nM
CCN(CC)CCN1CCc2[nH]c(/C=C3\C(=O)Nc4cccc(-c5cccc(Cl)c5F)c43)c(C)c2C1=O [Example 36, 2-[4-(3-Chloro-2-fluoro-phenyl)-2-oxo-1,2-dihydro-indol-3-ylidenemethyl]-5-(2-diethylamino-ethyl)-3-methyl-1,5,6,7-tetrahydro-pyrrolo[3,2-c]pyridin-4-one] | 110 nM
CCN(CC)CCN1CCc2[nH]c(/C=C3\C(=O)Nc4cccc(CCO)c43)c(C)c2C1=O [Example 37, 5-(2-Diethylamino-ethyl)-2-[4-(2-hydroxy-ethyl)-2-oxo-1,2-dihydro-indol-3-ylidenemethyl]-3-methyl-1,5,6,7-tetrahydro-pyrrolo[3,2-c]pyridin-4-one] | 110 nM
CCN(CC)CCN1CCc2[nH]c(/C=C3\C(=O)Nc4cccc(-c5cccc(F)c5F)c43)c(C)c2C1=O [Example 39, 5-(2-diethylamino-ethyl)-2-[4-(2,3-difluoro-phenyl)-2-oxo-1,2-dihydro-indol-3-ylidenemethyl]-3-methyl-1,5,6,7-tetrahydro-pyrrolo[3,2-c]pyridin-4-one] | 50 nM
Cc1c(/C=C2\C(=O)Nc3ccc(Br)cc32)[nH]c2c1C(=O)N(CCN1CCCC1)CC2 [Example 40, 2-(5-Bromo-2-oxo-1,2-dihydro-indol-3-ylidenemethyl)-3-methyl-5-(2-pyrrolidin-1-yl-ethyl)-1,5,6,7-tetrahydro-pyrrolo[3,2-c]pyridin-4-one] | 130 nM
Cc1c(/C=C2\C(=O)Nc3cccc(CCO)c32)[nH]c2c1C(=O)N(CCN1CCOCC1)CC2 [Example 42, 2-[4-(2-Hydroxy-ethyl)-2-oxo-1,2-dihydro-indol-3-ylidenemethyl]-3-methyl-5-(2-morpholin-4-yl-ethyl)-1,5,6,7-tetrahydro-pyrrolo[3,2-c]pyridin-4-one] | 280 nM
Cc1c(/C=C2\C(=O)Nc3ncc(Br)cc32)[nH]c2c1C(=O)N(CCN1CCOCC1)CC2 [Example 50, 2-(5-Bromo-2-oxo-1,2-dihydro-pyrrolo[2,3-b]pyridin-3-ylidenemethyl)-3-methyl-5-(2-morpholin-4-yl-ethyl)-1,5,6,7-tetrahydro-pyrrolo[3,2-c]pyridin-4-one] | 1160 nM
Cc1c(/C=C2\C(=O)Nc3cccc(C4CCNCC4)c32)[nH]c2c1C(=O)N(CCN1CCOCC1)CC2 [Example 52, 3-Methyl-5-(2-morpholin-4-yl-ethyl)-2-(2-oxo-4-piperidin-4-yl-1,2-dihydro-indol-3-ylidenemethyl)-1,5,6,7-tetrahydro-pyrrolo[3,2-c]pyridin-4-one] | 260 nM
Cc1c(/C=C2\C(=O)Nc3cccc(-c4cccc(F)c4F)c32)[nH]c2c1C(=O)N(CCN1CCCC1)CC2 [Example 59, 2-[4-(2,3-Difluoro-phenyl)-2-oxo-1,2-dihydro-indol-3-ylidenemethyl]-3-methyl-5-(2-pyrrolidin-1-yl-ethyl)-1,5,6,7-tetrahydro-pyrrolo[3,2-c]pyridin-4-one] | 300 nM
